As a reminder, the IC50 is the midpoint of a concentration-inhibition curve.

Molecules are shown by their SMILES. Where two headings read alike, the source gives them in different places. A value given as a limit tells only on which side of the number the result lay.

The source of these data is US20240059703A1 (AMGEN INC., priority 2021, published 2024).

For experiment [1], the target named is KRAS G12C (Homo sapiens (Human), UniProt P01116, C118A/G12C). Description: 2 h coupled exchange assay. Format: biochemical. As to the method:
The term “2 h coupled exchange assay” or “20 h coupled exchange assay” as used herein refers to the assay described in the Section entitled “BIOLOGICAL EVALUATION.”

Experiment [2] relates to MIA PaCa-2 (human pancreatic carcinoma) cells. Description: Cell Viability Assay (CellTiter-Glo), MIA PaCa-2. Format: cell-based. As to the method: (§1) Serially-diluted compound or DMSO was added to the cells, and plates were incubated at 37° C., 5% CO2 for 72 h. Cell viability was measured using a CellTiter-Glo® Luminescent Cell Viability Assay kit (Promega) according to the manufacturer's protocol. The luminescence signal of treated samples was normalized to DMSO control, and data were analyzed using a 4-parameter logistic model to calculate IC50 values.
On the technique in general: ATP-based viability assays read luminescence as a measure of living cells.

Experiment [3] concerns A549 (human lung carcinoma) cells. Description: Cell Viability Assay (CellTiter-Glo), A549. Format: cell-based. As for the experimental part:
as §1, with “MIA PaCa-2 (human pancreatic carcinoma; ATCC CRL-1420) or A549 (human lung carcinoma; ATCC CCL-185) cells were cultured in RPMI 1640 medium containing 10% fetal bovine serum and 1× penicillin/streptomycin/L-glutamine. Cells were seeded in 384-well plates at a density of 1.67E+04 cells/mL and incubated at 37° C., 5% CO2, overnight. Serially-diluted” for “Serially-diluted”

The mark [4] stands for this setting: read-out: Avg 2 h Coupled exchange IC50, 2 h compound pre-incubation.

Sequence of KRAS G12C (P01116 other isoform, or with tags, fused parts or gaps G12C/C118A): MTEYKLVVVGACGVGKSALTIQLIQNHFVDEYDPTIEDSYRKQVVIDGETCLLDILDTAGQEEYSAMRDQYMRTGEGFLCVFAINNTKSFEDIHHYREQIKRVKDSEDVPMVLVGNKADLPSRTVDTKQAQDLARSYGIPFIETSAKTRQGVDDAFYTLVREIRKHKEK

For the molecule `C=CC(=O)N1CC2(CCN(c3nc4c(c(-c5c(C)ccc6cnn(C)c56)c3C)CCN(C3(C)COC3)C4)C2)C1` (atropisomer, axis not shown; (P)) [Example 36-3, (P)-1-(6-(4-(1,6-dimethyl-1H-indazol-7-yl)-3-methyl-7-(3-methyl-3-oxetanyl)-5,6,7,8-tetrahydro-1,7-naphthyridin-2-yl)-2,6-diazaspiro[3.4]octan-2-yl)-2-propen-1-one], the concentration for half-maximal inhibition (IC50) was 65300 nM in experiment [1] (setting [4]), 11000 nM in experiment [2] (72 h) and 18800 nM in experiment [3] (72 h).

Consider `C=CC(=O)N1CC2(CCN(c3nc4c(c(-c5c(C)ccc6[nH]ncc56)c3C#N)CC[C@@H](C(F)(F)F)C4)C2)C1` (racemic) [Example 13-10, (7R)-4-(5-methyl-1H-indazol-4-yl)-2-(2-(2-propenoyl)-2,6-diazaspiro[3.4]octan-6-yl)-7-(trifluoromethyl)-5,6,7,8-tetrahydro-3-quinoline-carbonitrile|(7S)-4-(5-methyl-1H-indazol-4-yL)-2-(2-(2-propenoyl)-2,6-diazaspiro[3.4]octan-6-yl)-7-(trifluoromethyl)-5,6,7,8-tetrahydro-3-quinolinecarbonitrile], for which the IC50 is 71 nM in experiment [1] (read-out: Avg 2 h Coupled exchange IC50, 2 h compound pre-incubation, SOS-mediated nucleotide exchange); 246 nM in experiment [2] (72 h); > 5000 nM in experiment [3] (72 h).

`C=CC(=O)N1CC2(CCN(c3nc4c(c(-c5c(C)ccc6[nH]ncc56)c3C#N)[C@H](C)O[C@H](C)C4)C2)C1` (racemic) [Example 13-13, (5R,7S)-5,7-dimethyl-4-(5-methyl-1H-indazol-4-yl)-2-(2-(2-propenoyl)-2,6-diazaspiro[3.4]octan-6-yl)-7,8-dihydro-5H-pyrano[4,3-b]pyridine-3-carbonitrile|(5S,7R)-5,7-dimethyl-4-(5-methyl-1H-indazol-4-yl)-2-(2-(2-propenoyl)-2,6-diazaspiro[3.4]octan-6-yl)-7,8-dihydro-5H-pyrano[4,3-b]pyridine-3-carbonitrile]: the IC50 in experiment [1] (Avg 2 h Coupled exchange IC50, 2 h compound pre-incubation, SOS-mediated nucleotide exchange) is 93 nM; in experiment [2] (Homo sapiens, MIA PaCa-2, 72 h), 462 nM; in experiment [3] (Homo sapiens, A549, 72 h) it was > 5000 nM.

Turning to `C=CC(=O)N1CC2(CCN(c3nc4c(c(-c5cccc(C)c5C)n3)CC[C@@H](c3nccs3)C4)C2)C1` (racemic) [Example 22-3, 1-(6-((7R)-4-(2,3-dimethylphenyl)-7-(1,3-thiazol-2-yl)-5,6,7,8-tetrahydro-2-quinazolinyl)-2,6-diazaspiro[3.4]octan-2-yl)-2-propen-1-one|1-(6-((7S)-4-(2,3-dimethylphenyl)-7-(1,3-thiazol-2-yl)-5,6,7,8-tetrahydro-2-quinazolinyl)-2,6-diazaspiro[3.4]octan-2-yl)-2-propen-1-one], the 50% inhibitory concentration (IC50) is 281 nM in experiment [1] (setting [4]), 3310 nM in experiment [2] (72 h) and > 5000 nM in experiment [3] (72 h).

For `C=CC(=O)N1CC2(CCN(c3nc4c(c(-c5ncccc5F)c3C#N)CC[C@@H](c3scnc3C)C4)C2)C1` (racemic) [Example 23-57, (7R)-4-(3-fluoro-2-pyridinyl)-7-(4-methyl-1,3-thiazol-5-yl)-2-(2-(2-propenoyl)-2,6-diazaspiro[3.4]octan-6-yl)-5,6,7,8-tetrahydro-3-quinolinecarbonitrile (7S)-4-(3-fluoro-2-pyridinyl)-7-(4-methyl-1,3-thiazol-5-yl)-2-(2-(2-propenoyl)-2,6-diazaspiro[3.4]octan-6-yl)-5,6,7,8-tetrahydro-3-quinolinecarbonitrile], the half-inhibitory concentration (IC50) in experiment [1] (Avg 2 h Coupled exchange IC50, 2 h compound pre-incubation) is 85 nM; in experiment [2] (Homo sapiens, MIA PaCa-2, 72 h), 299 nM; in experiment [3] (Homo sapiens, A549, 72 h), > 5000 nM.

Consider `C=CC(=O)N1CC2(CCN(c3nc4c(c(-c5c(C)ccc6[nH]ncc56)c3C#N)CC(C(C)C)C4)C2)C1` (racemic) [Example 24-1, (6R)-4-(5-methyl-1H-indazol-4-yl)-6-(2-propanyl)-2-(2-(2-propenoyl)-2,6-diazaspiro[3.4]octan-6-yl)-6,7-dihydro-5H-cyclopenta[b]pyridine-3-carbonitrile and (6S) 4-(5-methyl-1H-indazol-4-yl)-6-(2-propanyl)-2-(2-(2-propenoyl)-2,6-diazaspiro[3.4]octan-6-yl)-6,7-dihydro-5H-cyclopenta[b]pyridine-3-carbonitrile], for which the IC50 in experiment [1] (setting [4]) was 62 nM; in experiment [2] (72 h), 1120 nM; in experiment [3] (72 h) it was > 5000 nM.
